From patent publication US8779142B2, “Azabicyclo compound and salt thereof” (Taiho Pharmaceutical Co., Ltd., priority 2009, dated 2014)
Where two headings read alike, the source gives them in different places.

Experiments:
[1] = target: human HSP90 alpha protein (HSP90 N-terminal protein, amino acids 2-236) (Homo sapiens (Human), UniProt P07900); test: Measurement of HSP90-binding activity (AlphaScreen competitive assay, biotin-labeled geldanamycin); details: read-out: HSP-binding activity IC50
[2] = system: SK-BR-3 cells; test: Measurement of cell growth inhibition (crystal violet staining method); type: cell-based
[3] = concentration inhibiting binding of biotin-labeled geldanamycin (40 nM) to purified HSP90 to 50% of control
[4] = Homo sapiens, breast cancer SK-BR-3 cells, 72 hr culture with test substance

Compound | IC50 [1, 3] [µM] | IC50 [2, 4] [µM] | IC50 [1] [µM] | IC50 [2] [µM] | IC50 ([2]; Homo sapiens, SK-BR-3, 72 h) [µM]
2-(4-Hydroxycyclohexylamino)-4-{3-methyl-4-(4-(pyridin-3-yl)-1H-imidazol-1-yl)-1H-pyrazolo[2,3-b]pyridin-1-yl}benzamide [Example 98] |  |  | 0.07 | 0.01 | 
2-(Trans-4-methylsulfonamidocyclohexylamino)-4-{3-methyl-4-(quinolin-3-yl)-1H-pyrrolo[2,3-b]pyridin-1-yl}benzamide [Example 63] |  |  | 0.47 | 0.17 | 
4-{4-(4-(1-(Hydroxyethyl)-1H-pyrazol-4-yl)-1H-imidazol-1-yl)-3-isopropyl-1H-pyrazolo[3,4-b]pyridin-1-yl}-2-(isopropyl)benzamide [Example 148] |  |  | 0.4 | 0.24 | 
COc1ccc2ccn(-c3ccc(C(N)=O)c(NC4CCC(O)CC4)c3)c2c1 (stereo not shown) [Comparative Example 1, reference compound] | > 100 | > 10 |  |  | 
COc1cccc2c1ccn2-c1ccc(C(N)=O)c(NC2CCC(O)CC2)c1 (stereo not shown) [Comparative Example 2, reference compound] | > 100 | > 10 |  |  | 
COc1cc2ccn(-c3ccc(C#N)c(Nc4ccccc4)c3)c2cc1OC [Comparative Example 3, reference compound] |  | > 10 |  |  | 
COc1cc2ccn(-c3ccc(C(N)=O)c(Nc4ccccc4)c3)c2cc1OC [Comparative Example 4, reference compound] |  |  |  |  | > 10
COc1ccc2c(c1)cc(C)n2-c1ccc(C(N)=O)c(Nc2ccccc2)c1 [Comparative Example 5, reference compound] |  |  |  |  | > 10
NC(=O)c1ccc(-n2ccc3ccccc32)c(Cl)c1 [Comparative Example 6, reference compound] | > 100 | > 10 |  |  | 
NC(=O)c1ccc(-n2nc(C(F)(F)F)c3c(-c4cnc5ccccc5c4)ccnc32)cc1N[C@H]1CC[C@H](O)CC1 [Example 1, 2-(Trans-4-hydroxycyclohexylamino)-4-{4-(quinolin-3-yl)-3-(trifluoromethyl)-1H-pyrazolo[3,4-b]pyridin-1-yl}benzamide] | 0.12 | 0.02 |  |  | 
Cc1nn(-c2ccc(C(N)=O)c(N[C@H]3CC[C@H](O)CC3)c2)c2nccc(-c3cnc4ccccc4c3)c12 [Example 2, 2-(Trans-4-hydroxycyclohexylamino)-4-{4-(quinolin-3-yl)-3-methyl-1H-pyrazolo[3,4-b]pyridin-1-yl}benzamide] | 0.13 | 0.03 |  |  | 
CCc1nn(-c2ccc(C(N)=O)c(N[C@H]3CC[C@H](O)CC3)c2)c2nccc(-c3cnc4ccccc4c3)c12 [Example 3, 2-(Trans-4-hydroxycyclohexylamino)-4-{4-(quinolin-3-yl)-3-ethyl-1H-pyrazolo[3,4-b]pyridin-1-yl}benzamide] | 0.17 | 0.02 |  |  | 
CC(C)c1nn(-c2ccc(C(N)=O)c(N[C@H]3CC[C@H](O)CC3)c2)c2ccnc(-c3cnc4ccccc4c3)c12 [Example 4, 2-(Trans-4-hydroxycyclohexylamino)-4-{3-isopropyl-4-(quinolin-3-yl)-1H-pyrazolo[4,3-c]pyridin-1-yl}benzamide] |  |  | 1.6 |  | 0.82
CC(C)c1nn(-c2ccc(C(N)=O)c(N[C@H]3CC[C@H](O)CC3)c2)c2cncc(-c3cnc4ccccc4c3)c12 [Example 5, 2-(Trans-4-hydroxycyclohexylamino)-4-{3-isopropyl-4-(quinolin-3-yl)-1H-pyrazolo[3,4-c]pyridin-1-yl}benzamide] |  |  | 0.16 |  | 0.11
CC(C)c1nn(-c2ccc(C(N)=O)c(N[C@H]3CC[C@H](O)CC3)c2)c2nccc(-c3cnc4ccccc4c3)c12 [Example 6, 2-(Trans-4-hydroxycyclohexylamino)-4-{3-isopropyl-4-(quinolin-3-yl)-1H-pyrazolo[3,4-b]pyridin-1-yl}benzamide] |  | 0.03 |  |  | 
CC(C)c1nn(-c2ccc(C(N)=O)c(N[C@H]3CC[C@H](O)CC3)c2)c2nccc(-c3cccnc3)c12 [Example 7, 2-(Trans-4-hydroxycyclohexylamino)-4-{3-isopropyl-4-(pyridin-3-yl)-1H-pyrazolo[3,4-b]pyridin-1-yl}benzamide] | 0.34 | 0.23 |  |  | 
COc1cncc(-c2ccnc3c2c(C(C)C)nn3-c2ccc(C(N)=O)c(N[C@H]3CC[C@H](O)CC3)c2)c1 [Example 11, 2-(Trans-4-hydroxycyclohexylamino)-4-{3-isopropyl-4-(5-methoxypyridin-3-yl)-1H-pyrazolo[3,4-b]pyridin-1-yl}benzamide] | 0.55 | 0.16 |  |  | 
CC(C)c1nn(-c2ccc(C(N)=O)c(N[C@H]3CC[C@H](O)CC3)c2)c2nccc(-c3cnc4[nH]ccc4c3)c12 [Example 13, 2-(Trans-4-hydroxycyclohexylamino)-4-{3-isopropyl-4-(1H-pyrrolo[2,3-b]pyridin-5-yl)-1H-pyrazolo[3,4-b]pyridin-1-yl}benzamide] | 0.43 | 0.15 |  |  | 
CC(C)c1nn(-c2ccc(C(N)=O)c(N[C@H]3CC[C@H](O)CC3)c2)c2nccc(-c3cnc4c(ccn4C)c3)c12 [Example 14, 2-(Trans-4-hydroxycyclohexylamino)-4-{3-isopropyl-4-(1-methyl-1H-pyrrolo[2,3-b]pyridin-5-yl)-1H-pyrazolo[3,4-b]pyridin-1-yl}benzamide] | 0.69 | 0.18 |  |  | 
COc1ccc(-c2ccnc3c2c(C(C)C)nn3-c2ccc(C(N)=O)c(N[C@H]3CC[C@H](O)CC3)c2)cn1 [Example 18, 2-(Trans-4-hydroxycyclohexylamino)-4-{3-isopropyl-4-(6-methoxypyridin-3-yl)-1H-pyrazolo[3,4-b]pyridin-1-yl}benzamide] |  | 0.59 |  |  | 

The next lines start with results.

IC50 [1, 3] [µM] | IC50 [2, 4] [µM] | Compound | IC50 [1] [µM] | IC50 [2] [µM] | IC50 ([2]; Homo sapiens, SK-BR-3, 72 h) [µM]
0.42 | 0.59 | Cc1cn(-c2ccc(C(N)=O)c(N[C@@H]3CCCC[C@H]3N)c2)c2nccc(-c3cnc4ccccc4c3)c12 (relative stereo) [Example 64, 2-(Trans-2-aminocyclohexylamino)-4-{3-methyl-4-(quinolin-3-yl)-1H-pyrrolo[2,3-b]pyridin-1-yl}benzamide] |  |  | 
1.19 | 0.47 | CC(C)c1nn(-c2ccc(C(N)=O)c(N[C@H]3CC[C@H](O)CC3)c2)c2nccc(-c3cnc4c(c3)CCCC4)c12 [Example 19, 2-(Trans-4-hydroxycyclohexylamino)-4-{3-isopropyl-4-(5,6,7,8-tetrahydroquinolin-3-yl)-1H-pyrazolo[3,4-b]pyridin-1-yl}benzamide] |  |  | 
3.05 | 0.67 | CC(C)c1nn(-c2ccc(C(N)=O)c(NCc3ccccc3)c2)c2nccc(-c3cnc4ccccc4c3)c12 [Example 20, 2-(Benzylamino)-4-{3-isopropyl-4-(quinolin-3-yl)-1H-pyrazolo[3,4-b]pyridin-1-yl}benzamide] |  |  | 
0.18 | 0.16 | CC(C)c1nn(-c2ccc(C(N)=O)c(NCCN3CCCC3)c2)c2nccc(-c3cnc4ccccc4c3)c12 [Example 22, 4-{3-Isopropyl-4-(quinolin-3-yl)-1H-pyrazolo[3,4-b]pyridin-1-yl}-2-{2-(pyrrolidin-1-yl)ethylamino}benzamide] |  |  | 
0.49 | 0.19 | CSCCCNc1cc(-n2nc(C(C)C)c3c(-c4cnc5ccccc5c4)ccnc32)ccc1C(N)=O [Example 23, 4-{3-Isopropyl-4-(quinolin-3-yl)-1H-pyrazolo[3,4-b]pyridin-1-yl}-2-{3-(methylthio)propylamino}benzamide] |  |  | 
0.23 | 0.03 | CC(C)c1nn(-c2ccc(C(N)=O)c(NC3CCN(C)CC3)c2)c2nccc(-c3cnc4ccccc4c3)c12 [Example 24, 4-{3-Isopropyl-4-(quinolin-3-yl)-1H-pyrazolo[3,4-b]pyridin-1-yl}-2-(1-methylpiperidin-4-ylamino)benzamide] |  |  | 
1.27 | 0.07 | CC(C)c1nn(-c2ccc(C(N)=O)c(NCC(C)(C)C)c2)c2nccc(-c3cnc4ccccc4c3)c12 [Example 25, 4-{3-Isopropyl-4-(quinolin-3-yl)-1H-pyrazolo[3,4-b]pyridin-1-yl}-2-(neopentylamino)benzamide] |  |  | 
0.24 | 0.13 | CC(C)c1nn(-c2ccc(C(N)=O)c(NCCN(C)C)c2)c2nccc(-c3cnc4ccccc4c3)c12 [Example 27, 2-{2-(Dimethylamino)ethylamino}-4-{3-isopropyl-4-(quinolin-3-yl)-1H-pyrazolo[3,4-b]pyridin-1-yl}benzamide] |  |  | 
0.4 | 0.28 | CC(C)c1nn(-c2ccc(C(N)=O)c(NCCc3ccccn3)c2)c2nccc(-c3cnc4ccccc4c3)c12 [Example 28, 4-{3-Isopropyl-4-(quinolin-3-yl)-1H-pyrazolo[3,4-b]pyridin-1-yl}-2-{2-(pyridin-2-yl)ethylamino}benzamide] |  |  | 
0.32 | 0.24 | CC(C)c1nn(-c2ccc(C(N)=O)c(NCCCN(C)C)c2)c2nccc(-c3cnc4ccccc4c3)c12 [Example 29, 2-{3-(Dimethylamino)propylamino}-4-{3-isopropyl-4-(quinolin-3-yl)-1H-pyrazolo[3,4-b]pyridin-1-yl}benzamide] |  |  | 
 | 0.36 | Cc1cn(-c2ccc(C(N)=O)c(N[C@H]3CC[C@H](N)CC3)c2)c2nccc(-c3cnc4ccccc4c3)c12 [Example 61, 2-(Trans-4-aminocyclohexylamino)-4-{3-methyl-4-(quinolin-3-yl)-1H-pyrrolo[2,3-b]pyridin-1-yl}benzamide] |  |  | 
 | 0.51 | Cc1cn(-c2ccc(C(N)=O)c(S[C@H]3CC[C@H](O)CC3)c2)c2nccc(-c3cnc4ccccc4c3)c12 [Example 67, 2-(Trans-4-hydroxycyclohexylthio)-4-{3-methyl-4-(quinolin-3-yl)-1H-pyrrolo[2,3-b]pyridin-1-yl}benzamide] |  |  | 
 | 0.15 | COc1cc(C(N)=O)ccc1-n1nc(C(C)C)c2c(-n3cnc(-c4cnn(C)c4)c3)ccnc21 [Example 128, 4-{3-Isopropyl-4-(4-(1-methyl-1H-pyrazol-4-yl)-1H-imidazol-1-yl)-1H-pyrazolo[3,4-b]pyridin-1-yl}-3-methoxybenzamide] |  |  | 
